The source of these data is patent publication US11052092B2, “N-{[2-(piperidin-1-yl)phenyl](phenyl)methyl}-2-(3-oxo-3,4-dihydro-2H-1,4-benzoxazin-7-yl)acetamide derivatives and related compounds as ROR-gamma modulators for treating autoimmune diseases” (Genfit, priority 2017, dated 2021).

Usually melting point stands for the temperature of the solid-liquid transition.

Molecules are shown by their SMILES. Counter-ions that a name gives are not always drawn.

As to `CCN1c2ccc(C3(C(=O)NC(c4ccc(C)o4)c4ccc(C)cc4C)CC3)cc2CS1(=O)=O` (stereo not drawn) (as salt: HCl) [Cpd. 132, N-[(2,4-dimethylphenyl)(5-methylfuran-2-yl)methyl]-1-(1-ethyl-2,2-dioxo-1,3-dihydro-2,1-benzothiazol-5-yl)cyclopropane-1-carboxamide], the melting point is 68 °C. The result for `Cc1ccc(C(NC(=O)C2(c3ccc4c(c3)CS(=O)(=O)N4C)CC2)c2ccc(C)o2)c(N(C)C)c1` (stereo not drawn) (as salt: HCl) [Cpd. 133, N-{[2-(dimethylamino)-4-methylphenyl](5-methylfuran-2-yl)methyl}-1-(1-methyl-2,2-dioxo-1,3-dihydro-2,1-benzothiazol-5-yl)cyclopropane-1-carboxamide] reads 73 °C; that for `Cc1ccc(C(NC(=O)C2(c3ccc4c(c3)OCC(=O)N4)CC2)c2ccc(C)o2)c(Br)c1` (stereo not drawn) (as salt: HCl) [Cpd. 135, N-[(2-bromo-4-methylphenyl)(5-methylfuran-2-yl)methyl]-1-(3-oxo-3,4-dihydro-2H-1,4-benzoxazin-7-yl)cyclopropane-1-carboxamide], 82 °C; that for `Cc1ccc(C(NC(=O)C2(c3ccc4c(c3)OCC(=O)N4)CC2)c2cccc(C)n2)c(C)c1` (stereo not drawn) (as salt: HCl) [Cpd. 136, N-[(2,4-dimethylphenyl)(6-methylpyridin-2-yl)methyl]-1-(3-oxo-3,4-dihydro-2H-1,4-benzoxazin-7-yl)cyclopropane-1-carboxamide], 94 °C. In the case of `Cc1ccc(C(NC(=O)C2(c3ccc4c(c3)OCC(=O)N4)CC2)c2ccco2)c(C)c1` (stereo not drawn) (as salt: HCl) [Cpd. 139, N-[(2,4-dimethylphenyl)(furan-2-yl)methyl]-1-(3-oxo-3,4-dihydro-2H-1,4-benzoxazin-7-yl)cyclopropane-1-carboxamide], the melting point amounted to 180 °C. The result for `Cc1ccc(C(NC(=O)C2(c3ccc4c(c3)OCC(=O)N4)CC2)c2ccc(Cl)cc2)c(C)c1` (stereo not drawn) (as salt: HCl) [Cpd. 140, N-[(4-chlorophenyl)(2,4-dimethylphenyl)methyl]-1-(3-oxo-3,4-dihydro-2H-1,4-benzoxazin-7-yl)cyclopropane-1-carboxamide] reads 99 °C; that for `Cc1ccc(C(NC(=O)C2(c3ccc4c(c3)CCC4=O)CC2)c2ccc(C)o2)c(C)c1` (stereo not drawn) (as salt: HCl) [Cpd. 141, N-[(2,4-dimethylphenyl)(5-methylfuran-2-yl)methyl]-1-(1-oxo-2,3-dihydro-1H-inden-5-yl)cyclopropane-1-carboxamide], 56 °C. Compound `Cc1ccc(C(NC(=O)C2(c3ccc4c(c3)OCC(=O)N4)CC2)c2cccc(Cl)c2)c(C)c1` (stereo not drawn) (as salt: HCl) [Cpd. 143, N-[(3-chlorophenyl)(2,4-dimethylphenyl)methyl]-1-(3-oxo-3,4-dihydro-2H-1,4-benzoxazin-7-yl)cyclopropane-1-carboxamide] had a melting point of 181 °C. The result for `Cc1ccc(C(NC(=O)C2(c3ccc4c(n3)OCC(=O)N4)CC2)c2ccc(C)o2)c(C)c1` (stereo not drawn) (as salt: HCl) [Cpd. 144, N-[(2,4-dimethylphenyl)(5-methylfuran-2-yl)methyl]-1-{2-oxo-1H,2H,3H-pyrido[2,3-b][1,4]oxazin-6-yl}cyclopropane-1-carboxamide] reads 84 °C; that for `Cc1ccc(C(NC(=O)C2(c3ccc4c(c3)OCC(=O)N4)CC2)c2ccc(Cl)o2)c(N2CCCCC2)c1` (stereo not drawn) (as salt: HCl) [Cpd. 145, N-[(5-chlorofuran-2-yl)[4-methyl-2-(piperidin-1-yl)phenyl]methyl]-1-(3-oxo-3,4-dihydro-2H-1,4-benzoxazin-7-yl)cyclopropane-1-carboxamide], 199 °C. The value for `Cc1ccc(C(NC(=O)C2(c3ccc4c(c3)C(C)(C)C(=O)N4)CC2)c2ccc(C)o2)c(C)c1` (stereo not drawn) (as salt: HCl) [Cpd. 146, 1-(3,3-dimethyl-2-oxo-2,3-dihydro-1H-indol-5-yl)-N-[(2,4-dimethylphenyl)(5-methylfuran-2-yl)methyl]cyclopropane-1-carboxamide] was 82 °C; that for `COc1ccc(C(NC(=O)C2(c3ccc4c(c3)OCS(=O)(=O)N4)CC2)c2ccc(C)o2)c(Br)c1` (stereo not drawn) (as salt: HCl) [Cpd. 147, N-[(2-bromo-4-methoxyphenyl)(5-methylfuran-2-yl)methyl]-1-(2,2-dioxo-1,3-dihydro-4,2,1-benzoxathiazin-6-yl)cyclopropane-1-carboxamide] was 115 °C; that for `Cc1ccc(C(NC(=O)C2(c3ccc4c(c3)OCS(=O)(=O)N4)CC2)c2ccc(C)o2)c(N(C)C)c1` (stereo not drawn) (as salt: HCl) [Cpd. 148, N-{[2-(dimethylamino)-4-methylphenyl](5-methylfuran-2-yl)methyl}-1-(2,2-dioxo-1,3-dihydro-4,2,1-benzoxathiazin-6-yl)cyclopropane-1-carboxamide] was 105 °C. The value for `Cc1ccc(C(NC(=O)C2(c3ccc4c(c3)OCS(=O)(=O)N4)CC2)c2ccc(Cl)o2)c(C)c1` (stereo not drawn) (as salt: HCl) [Cpd. 149, N-[(5-chlorofuran-2-yl)(2,4-dimethylphenyl)methyl]-1-(2,2-dioxo-1,3-dihydro-4,2,1-benzoxathiazin-6-yl)cyclopropane-1-carboxamide] was 102 °C; that for `Cc1cnc(C(NC(=O)C2(c3ccc4c(c3)OCS(=O)(=O)N4)CC2)c2ccc(C)o2)c(C)c1` (stereo not drawn) (as salt: HCl) [Cpd. 153, N-[(3,5-dimethylpyridin-2-yl)(5-methylfuran-2-yl)methyl]-1-(2,2-dioxo-1,3-dihydro-4,2,1-benzoxathiazin-6-yl)cyclopropane-1-carboxamide] was 189 °C; that for `Cc1ccc(C(NC(=O)C2(c3ccc4c(c3)OCC(=O)N4)CC2)c2ccc(C)o2)c(N(C)C)c1` (stereo not drawn) (as salt: HCl) [Cpd. 156, N-{[2-(dimethylamino)-4-methylphenyl](5-methylfuran-2-yl)methyl}-1-(3-oxo-3,4-dihydro-2H-1,4-benzoxazin-7-yl)cyclopropane-1-carboxamide] was 99 °C. The compound `Cc1ccc(C(NC(=O)C2(c3ccc4c(c3)CS(=O)(=O)N4CC3CCOCC3)CC2)c2ccc(C)o2)c(C)c1` (stereo not drawn) (as salt: HCl) [Cpd. 157, N-[(2,4-dimethylphenyl)(5-methylfuran-2-yl)methyl]-1-[1-(oxan-4-ylmethyl)-2,2-dioxo-1,3-dihydro-2,1-benzothiazol-5-yl]cyclopropane-1-carboxamide] showed a melting point of 76 °C. The result for `Cc1ccc(C(NC(=O)C2(c3cc(F)c4c(c3)CC(=O)N4)CC2)c2ccc(C)o2)c(C)c1` (stereo not drawn) (as salt: HCl) [Cpd. 158, N-[(2,4-dimethylphenyl)(5-methylfuran-2-yl)methyl]-1-(7-fluoro-2-oxo-2,3-dihydro-1H-indol-5-yl)cyclopropane-1-carboxamide] reads 102 °C; that for `Cc1ccc(C(NC(=O)C2(c3ccc4c(c3)C(F)(F)C(=O)N4)CC2)c2ccc(C)o2)c(C)c1` (stereo not drawn) (as salt: HCl) [Cpd. 159, 1-(3,3-difluoro-2-oxo-2,3-dihydro-1H-indol-5-yl)-N-[(2,4-dimethylphenyl)(5-methylfuran-2-yl)methyl]cyclopropane-1-carboxamide], 177 °C. The result for `Cc1ccc(C(NC(=O)C2(c3ccc4c(c3)CS(=O)(=O)N4C)CC2)c2ccc(Cl)o2)c(C)c1` (stereo not drawn) (as salt: HCl) [Cpd. 160, N-[(5-chlorofuran-2-yl)(2,4-dimethylphenyl)methyl]-1-(1-methyl-2,2-dioxo-1,3-dihydro-2,1-benzothiazol-5-yl)cyclopropane-1-carboxamide] reads 70 °C; that for `Cc1ccc(C(NC(=O)C2(c3ccc4c(c3)OCO4)CC2)c2ccc(C)o2)c(Br)c1` (stereo not drawn) (as salt: HCl) [Cpd. 161, 1-(2H-1,3-benzodioxol-5-yl)-N-[(2-bromo-4-methylphenyl)(5-methylfuran-2-yl)methyl]cyclopropane-1-carboxamide], 55 °C; that for `Cc1ccc(C(NC(=O)C2(c3ccc4c(c3)CS(=O)(=O)N4CC3CCOCC3)CC2)c2ccc(C)o2)c(N2CCCCC2)c1` (stereo not drawn) (as salt: HCl) [Cpd. 162, N-{[4-methyl-2-(piperidin-1-yl)phenyl](5-methylfuran-2-yl)methyl}-1-[1-(oxan-4-ylmethyl)-2,2-dioxo-1,3-dihydro-2,1-benzothiazol-5-yl]cyclopropane-1-carboxamide], 87 °C. For the compound `Cc1ccc(C(NC(=O)C2(c3ccc4c(c3)CS(=O)(=O)N4CC3CCOCC3)CC2)c2ccc(C)o2)c(Br)c1` (stereo not drawn) (as salt: HCl) [Cpd. 163, N-[(2-bromo-4-methylphenyl)(5-methylfuran-2-yl)methyl]-1-[1-(oxan-4-ylmethyl)-2,2-dioxo-1,3-dihydro-2,1-benzothiazol-5-yl]cyclopropane-1-carboxamide], the melting point was 85 °C. The result for `Cc1ccc(C(NC(=O)C2(c3ccc4c(c3)OCO4)CC2)c2ccc(C)o2)c(N2CCCCC2)c1` (stereo not drawn) (as salt: HCl) [Cpd. 164, 1-(2H-1,3-benzodioxol-5-yl)-N-{[4-methyl-2-(piperidin-1-yl)phenyl](5-methylfuran-2-yl)methyl}cyclopropane-1-carboxamide] reads 51 °C.

Regarding `Cc1ccc(C(NC(=O)C2(c3ccc4c(c3)CCC4=NO)CC2)c2ccc(C)o2)c(C)c1` (stereo not drawn) (as salt: HCl) [Cpd. 165, N-[(2,4-dimethylphenyl)(5-methylfuran-2-yl)methyl]-1-[1-(hydroxyimino)-2,3-dihydro-1H-inden-5-yl]cyclopropane-1-carboxamide], the melting point stood at 68 °C. The result for `Cc1ccc(C(NC(=O)Cc2ccc3c(c2)CS(=O)(=O)N3CC2CCOCC2)c2ccc(C)o2)c(C)c1` (stereo not drawn) (as salt: HCl) [Cpd. 166, N-[(2,4-dimethylphenyl)(5-methylfuran-2-yl)methyl]-2-[1-(oxan-4-ylmethyl)-2,2-dioxo-1,3-dihydro-2,1-benzothiazol-5-yl]acetamide] reads 83 °C; that for `Cc1ccc(C(NC(=O)Cc2ccc3c(c2)CS(=O)(=O)N3CC2CCOCC2)c2ccc(C)o2)c(N2CCCCC2)c1` (stereo not drawn) (as salt: HCl) [Cpd. 167, N-{[4-methyl-2-(piperidin-1-yl)phenyl](5-methylfuran-2-yl)methyl}-2-[1-(oxan-4-ylmethyl)-2,2-dioxo-1,3-dihydro-2,1-benzothiazol-5-yl]acetamide], 85 °C.
